Test results: ChEMBL document CHEMBL1201862, “PubChem BioAssay data set” (2004)
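48-hour exposure; five concentrations; linearly interpolated endpoints. GI50 marks 50% less growth.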 Calls of active or inactive are those of the source. No stated cut-off is given here; in the data, active = GI50 up to about 1.1 µM and inactive = higher.

What was measured:
Experiment in all cases: DTP human tumour cell line panel, 48 h
[1] = test system: A498
[2] = test system: ACHN
[3] = test system: CAKI-1
[4] = test system: CCRF-CEM
[5] = test system: COLO 205
[6] = test system: DLD-1
[7] = test system: DMS-273
[8] = test system: EKVX
[9] = test system: HCC 2998
[10] = test system: HCT-116
[11] = test system: HCT-15
[12] = test system: HL-60
[13] = test system: HOP-62
[14] = test system: HOP-92
[15] = test system: HT-29
[16] = test system: IGROV-1
[17] = test system: K562
[18] = test system: KM-20L2
[19] = test system: KM12
[20] = test system: LOX IMVI
[21] = test system: LXFL 529
[22] = test system: M14
[23] = test system: M19-MEL
[24] = test system: MOLT-4
[25] = test system: Malme-3M
[26] = test system: NCI-H23
[27] = test system: NCI-H460
[28] = test system: NCI-H522
[29] = test system: OVCAR-3
[30] = test system: OVCAR-5
[31] = test system: OVCAR-8
[32] = test system: RPMI-8226
[33] = test system: RXF 393
[34] = test system: RXF 631
[35] = test system: SF-268
[36] = test system: SF-295
[37] = test system: SF-539
[38] = test system: SK-MEL-28
[39] = test system: SK-MEL-2
[40] = test system: SK-MEL-5
[41] = test system: SK-OV-3
[42] = test system: SN12C
[43] = test system: SNB-19
[44] = test system: SNB-75
[45] = test system: SNB-78
[46] = test system: SR
[47] = test system: SW-620
[48] = test system: TK-10
[49] = test system: U-251
[50] = test system: UACC-257
[51] = test system: UACC-62
[52] = test system: UO-31
[53] = test system: XF498
[54] = test system: 786-0
[55] = test system: A549
[56] = test system: DMS-114
[57] = test system: NCI-H226
[58] = test system: OVCAR-4

In the case of `CN(C)[C@@H]1C(O)=C(C(=O)NCN2CCN(C(=N)NC(=N)N)CC2)C(=O)[C@@]2(O)C(O)=C3C(=O)c4c(O)cccc4[C@@](C)(O)[C@H]3C[C@@H]12`, the GI50 [1] is reported as 1140 nM (inactive), the GI50 [2] is reported as 306 nM (active) and the GI50 [3] is reported as 274 nM (active). The GI50 [4] was 110 nM (active), the GI50 [5] was 79.8 nM (active) and the GI50 [6] was 46.6 nM (active). The GI50 [7] was 252 nM (active), the GI50 [8] was 286 nM (active) and the GI50 [9] was 337 nM (active). For the same compound, the GI50 [10] was 221 nM (active), the GI50 [11] was 72.1 nM and the GI50 [12] was 23.6 nM (active). For the same compound, the GI50 [13] was 1140 nM (inactive), the GI50 [14] was 279 nM (active) and the GI50 [15] was 123 nM (active). For the same compound, the GI50 [16] was 207 nM (active), the GI50 [17] was 40.1 nM (active) and the GI50 [18] was 299 nM (active). The GI50 [19] was 368 nM (active), the GI50 [20] was 156 nM (active) and the GI50 [21] was 85.7 nM (active). For the same compound, the GI50 [22] was 279 nM (active), the GI50 [23] was 310 nM (active) and the GI50 [24] was 59.7 nM (active). For the same compound, the GI50 [25] was 269 nM (active), the GI50 [26] was 136 nM (active) and the GI50 [27] was 324 nM (active). For the same compound, the GI50 [28] was 32.9 nM (active), the GI50 [29] was 287 nM (active) and the GI50 [30] was 282 nM (active). The GI50 [31] was 273 nM (active), the GI50 [32] was 31.5 nM (active) and the GI50 [33] was 120 nM (active). The GI50 [34] was 166 nM (active), the GI50 [35] was 518 nM (active) and the GI50 [36] was 506 nM (active). The GI50 [37] was 216 nM (active), the GI50 [38] was 238 nM (active) and the GI50 [39] was 113 nM (active). The GI50 [40] was 183 nM (active), the GI50 [41] was 1290 nM (inactive) and the GI50 [42] was 338 nM (active). For the same compound, the GI50 [43] was 314 nM (active), the GI50 [44] was 138 nM (active) and the GI50 [45] was 69.8 nM (active). The GI50 [46] was 40.6 nM (active), the GI50 [47] was 160 nM (active) and the GI50 [48] was 468 nM (active). For the same compound, the GI50 [49] was 269 nM (active), the GI50 [50] was 324 nM (active) and the GI50 [51] was 172 nM (active). For the same compound, the GI50 [52] was 301 nM (active) and the GI50 [53] was 91 nM (active).

With `CCc1cccc(CC)c1NC(=O)C1=CNC(C)=C(C(=O)Nc2c(CC)cccc2CC)C1c1ccc(O)c(OC)c1` (stereo unspecified) the GI50 [54] was 34400 nM (inactive), the GI50 [1] was 24700 nM (inactive) and the GI50 [55] was 31600 nM (inactive). The GI50 [2] was 32500 nM (inactive), the GI50 [3] was 39800 nM (inactive) and the GI50 [4] was 21500 nM (inactive). The GI50 [5] was 56200 nM (inactive), the GI50 [6] was 47000 nM (inactive) and the GI50 [56] was 24500 nM (inactive). The GI50 [8] was 35200 nM (inactive), the GI50 [9] was 47400 nM (inactive) and the GI50 [12] was 26500 nM (inactive). The GI50 [13] was 33300 nM (inactive), the GI50 [14] was 42400 nM (inactive) and the GI50 [15] was 31100 nM (inactive). For the same compound, the GI50 [16] was 36800 nM (inactive), the GI50 [17] was 31400 nM (inactive) and the GI50 [18] was 49500 nM (inactive). The GI50 [19] was 24600 nM (inactive), the GI50 [20] was 31500 nM (inactive) and the GI50 [21] was 27100 nM (inactive). The GI50 [22] was 34500 nM (inactive), the GI50 [23] was 34400 nM (inactive) and the GI50 [24] was 22300 nM (inactive). For the same compound, the GI50 [25] was 28100 nM (inactive), the GI50 [57] was 30100 nM (inactive) and the GI50 [26] was 36600 nM (inactive). For the same compound, the GI50 [27] was 31600 nM (inactive), the GI50 [28] was 26400 nM (inactive) and the GI50 [29] was 19000 nM (inactive). For the same compound, the GI50 [58] was 23900 nM (inactive), the GI50 [30] was 54800 nM (inactive) and the GI50 [31] was 33700 nM (inactive). The GI50 [32] was 16800 nM (inactive), the GI50 [33] was 25300 nM (inactive) and the GI50 [34] was 37900 nM (inactive). The GI50 [35] was 40600 nM (inactive), the GI50 [36] was 29000 nM (inactive) and the GI50 [37] was 17600 nM (inactive). For the same compound, the GI50 [38] was 33300 nM (inactive), the GI50 [39] was 26200 nM (inactive) and the GI50 [40] was 32300 nM (inactive). For the same compound, the GI50 [41] was > 100000 nM (inactive), the GI50 [42] was 57800 nM (inactive) and the GI50 [43] was 54100 nM (inactive). The GI50 [44] was 44700 nM (inactive), the GI50 [45] was 28700 nM (inactive) and the GI50 [47] was 30300 nM (inactive). For the same compound, the GI50 [48] was 47600 nM (inactive), the GI50 [49] was 12400 nM (inactive) and the GI50 [50] was 28200 nM (inactive). The GI50 [52] was 29100 nM (inactive) and the GI50 [53] was 26600 nM (inactive).
